According to publication PMC11818712, “Unveiling the Multitarget Potential of a Rare Caffeoyl Ester from Artemisia capillaris for Diabetes Mellitus: An Integrated In Vitro and In Silico Study” (International Journal of Molecular Sciences, 2025):

How the values were obtained:
[1] = DPPH radical scavenging activity assay; conditions: free radical scavenging
Method: The DPPH radical scavenging activity was evaluated using methods outlined in Blois (1958), with slight modifications. Different concentrations in 160 μL of MeOH (final concentration = 320 μg/mL for the extracts, fractions, and the compounds) were added to 40 μL of a DPPH:MeOH solution (1.5 × 10^−4 M). After gently mixing the sample and letting it stand at room temperature for 30 min, the optical density was measured at 520 nm using a VERSAmax microplate spectrophotometer (Molecular Devices). […] We used L-ascorbic acid as the positive control. The IC50 values presented here are expressed as the mean ± the standard error of the mean of triplicate experiments.

[2] = target: α-glucosidase (Saccharomyces cerevisiae, UniProt P53341); type: biochemical; conditions: at the tested concentration
Sequence of α-glucosidase (P53341 whole entry): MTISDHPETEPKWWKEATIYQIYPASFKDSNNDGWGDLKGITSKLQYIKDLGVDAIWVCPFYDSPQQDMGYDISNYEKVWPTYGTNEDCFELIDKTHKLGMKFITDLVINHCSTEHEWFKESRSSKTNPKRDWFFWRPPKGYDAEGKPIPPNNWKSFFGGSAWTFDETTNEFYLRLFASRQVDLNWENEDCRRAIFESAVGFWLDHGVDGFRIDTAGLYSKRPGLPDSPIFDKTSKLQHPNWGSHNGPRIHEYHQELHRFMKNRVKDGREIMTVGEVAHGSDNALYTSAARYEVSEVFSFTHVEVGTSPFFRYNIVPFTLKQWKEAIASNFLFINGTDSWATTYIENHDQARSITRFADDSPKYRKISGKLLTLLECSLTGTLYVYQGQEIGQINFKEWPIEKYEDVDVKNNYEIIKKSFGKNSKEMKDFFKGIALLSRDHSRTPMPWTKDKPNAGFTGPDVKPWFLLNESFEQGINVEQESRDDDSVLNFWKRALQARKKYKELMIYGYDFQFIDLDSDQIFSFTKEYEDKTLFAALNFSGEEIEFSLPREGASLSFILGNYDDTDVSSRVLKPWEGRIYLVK
Method: Enzyme inhibition studies were carried out spectrophotometrically in a 96-well microplate reader using a procedure reported by Li. A 60 µL reaction mixture, containing 20 µL of 100 mM phosphate buffer (pH 6.8), 20 µL of 2.5 mM p-NPG in the buffer, and 20 µL of PPT-14 dissolved in 10% DMSO, was added to each well. The enzymatic reaction was initiated by the addition of 20 µL of 10 mM phosphate buffer (pH 6.8), containing 0.2 U/mL α-glucosidase to each well. The plate was incubated at 37 °C for 15 min, and then 80 µL of 0.2 mol/L sodium carbonate solution was added to stop the reaction. Immediately after that, the absorbance was recorded at 405 nm using a VERSA max (Molecular Devices, Sunnyvale, CA, USA) microplate reader. Control samples contained the same reaction mixture, except that an equivalent volume of phosphate buffer was added instead of the sample solution. […] The inhibition (%) was calculated as (Ac − As)/Ac × 100%, where Ac was the absorbance of the control, and As was the absorbance of the sample.

[3] = target: human recombinant aldose reductase (HRAR) (Homo sapiens, UniProt P15121); test: Human recombinant aldose reductase (HRAR)-inhibitory activity assay (DL-glyceraldehyde substrate); type: biochemical
Method: The reaction mixture was prepared as follows: we combined 100 µL of 0.15 mM nicotinamide adenine dinucleotide phosphate (NADPH), 100 µL of 10mM DL-glyceraldehyde as a substrate, and 5 µL of HRAR with the sample (final concentration of 100 µM for the test compound, dissolved in 100% DMSO) in a total volume of 1.0 mL of 100 mM sodium phosphate buffer (pH 6.2). The AR activity was determined by measuring the decrease in nicotinamide adenine dinucleotide phosphate (NADPH) absorption at 340 nm over a period of 1 min using an Ultrospec-2100pro UV–visible spectrophotometer with Microsoft™ Excel, control by SWIFT II software (Amersham Biosciences, Piscataway, NJ, USA). […] The inhibition percentage (%) was calculated as described for the assay of Renilla luciferase, except that the DA sample/min represented a reduction in absorbance for 1 min with the test samples and substrate. The HRAR-inhibitory activity of each sample was expressed in terms of the IC50 value (µM), which was calculated from the log–dose inhibition curve.

[4] = target: T1, PTP1B (Homo sapiens, UniProt P18031); test: PTP1B-inhibitory activity assay (p-NPP substrate); type: biochemical
T1 sequence (P18031 1-435): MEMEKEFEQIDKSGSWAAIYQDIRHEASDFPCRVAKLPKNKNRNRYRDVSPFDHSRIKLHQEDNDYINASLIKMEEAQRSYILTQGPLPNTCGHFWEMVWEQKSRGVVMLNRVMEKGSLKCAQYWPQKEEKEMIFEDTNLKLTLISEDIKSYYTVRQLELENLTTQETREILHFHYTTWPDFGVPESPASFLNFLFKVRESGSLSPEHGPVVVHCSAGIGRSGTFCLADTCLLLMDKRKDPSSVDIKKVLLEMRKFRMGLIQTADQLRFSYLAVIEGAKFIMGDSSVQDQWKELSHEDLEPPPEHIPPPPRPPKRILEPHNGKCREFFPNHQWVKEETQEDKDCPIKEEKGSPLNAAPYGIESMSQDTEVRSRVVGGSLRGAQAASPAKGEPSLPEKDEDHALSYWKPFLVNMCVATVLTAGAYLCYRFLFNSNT
Method: Following incubation at 37 °C for 30 min, the reaction was terminated with the addition of 10 M NaOH.

| Structure (SMILES) | DPPH IC50 [1] [µg/mL] | IC50 [1] [µM] | α-glucosidase inhibitory activity [2] | IC50 [3] [µM] | IC50 [4] [µM] |
| --- | --- | --- | --- | --- | --- |
| O=C1O[C@H]([C@@H](O)CO)C(O)=C1O [Ascorbic acid, reference compound] | 5.6 | 31.8 | – | – | – |
| C[C@@](O)(C(=O)O)[C@H](O)COC(=O)/C=C/c1ccc(O)c(O)c1 [PPT-14, 4-O-caffeoyl-2-C-methyl-D-threonic acid] | 4.5 | 14.5 | did not exhibit any α-glucosidase inhibitory activity | 19.5 ± 0.51 | 64.92 ± 0.34 |
